This note sets out measurements from article PMC8344021, “Discovery of Small Molecule Bak Activator for Lung Cancer Therapy” (Theranostics, 2021).

A short description of data set [1]: Toxicity in mice bearing A549 xenografts. In kind it is in vivo, Nu/Nu nude mice. The note with it: 28 days. The protocol: To assess whether BKA-073 induced suppression of tumor growth occurs through activation of Bak and apoptosis in vivo, representative samples from harvested tumor tissues were analyzed by cross-linking with BMH for Bak oligomerization or by immunohistochemistry (IHC) for active caspase 3 as described, [29], [47]. […] There were no decreases in white cells (WBC), red blood cells (RBC) and platelets (PLT) in blood.
Figure 5 Toxicity of BKA-073 in vivo. (A-C) Body weight (A), blood analysis (B) and H&E histology of various organs (C) from mice bearing A549 xenografts after treatment with increasing doses (0, 5, 10, 15mg/kg/d) of BKA-073 for 28 days. […]
Whole blood (250µL) was collected in EDTA-coated tubes via cardiac puncture of anesthetized
mice for hematology studies. […]

A further data set relates to A549-IRR xenografts. Description: Radioresistant A549-IRR xenografts, tumor growth. The note with it: 15 mg/kg/d, 4 weeks. It is filed as in vivo, Nu/Nu nude mice. The protocol:
Six-week-old female Nu/Nu nude mice were purchased from Envigo (Indianapolis, IN) and housed under pathogen-free conditions in microisolator cages. The animal propagation protocol was approved by the Emory Institutional Animal Care and Use Committee (IACUC) and the Emory Animal Ethics Committee. 3×10^6 lung cancer cells were injected into subcutaneous tissue in the flank region of nude mice. The tumors were allowed to grow to an average volume of 150~200 mm^3 prior to initiation of therapy as previously described, [29]. Patient-derived xenografts (PDXs, TKO-002 and TKO-005) were established as part of an IRB-approved phase II co-clinical trial of arsenic trioxide in patients with relapsed SCLC who had failed standard platinum-based chemotherapy. Tumor samples were obtained by image-guided biopsy and were directly implanted into Nu/Nu nude mice without intervening propagation in plastic culture plates. Direct serial propagation of growing tumor occurred for up to 5 generations. […] During treatment, tumor volume (V) was measured by caliper measurements once every two days as described previously. […]
Figure S7. […] (A) Expression levels of Bak in A549-P versus A549-IRR cells, H358-P versus H358 -IRR cells or H460-P versus H460-IRR cells were analyzed by Western blot. […]
Tumor volume was measured once every 2 days. After treatment, mice were sacrificed and tumors were removed and analyzed. […]

For `COc1ccc2nc3ccccc3c(NCCNCC(C)O)c2c1` (stereo not drawn) [BKA-073], in data set [1] (5, 10, 15mg/kg/d i.p.), the body weight result is “No weight loss”; the “kidney (BUN) and liver (ALT and AST) function” value is on record as “in the normal range”; the “white cells (WBC), red blood cells (RBC) and platelets (PLT) in blood” value is “no decreases”. Moreover, in data set [1] (5-15mg/kg/d i.p.), the tolerability result is given as “well tolerated without significant toxicity”. The “histopathology of normal tissues (heart, liver, lung, brain, spleen, kidney, intestine)” value in data set [1] (5~15mg/kg/d i.p.) is “no evidence of normal tissue toxicities”. In addition, the tumor growth entry in the data set on A549-IRR xenografts is listed as “repressed xenografts”.
